Source: the supplement of paper PMC10307832

Experiments:
Experiment in all cases: relative viability (nuclei count vs DMSO), 5 days (fraction); higher = more cells survive
17-AAG + Crizotinib = compound: C=CCNC1=C2C[C@@H](C)C[C@H](OC)[C@H](O)[C@@H](C)/C=C(\C)[C@H](OC(N)=O)[C@@H](OC)/C=C\C=C(/C)C(=O)NC(=CC1=O)C2=O [17-AAG] + C[C@@H](Oc1cc(-c2cnn(C3CCNCC3)c2)cnc1N)c1c(Cl)ccc(F)c1Cl [Crizotinib] (partner 1 µM)
Summary of the method: (§1)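 For relative viability, nuclei counts in treated wells were divided by those in vehicle wells. Lung cancer cell lines had been pin-tool dosed in 1536-well plates the day after seeding and cultured for 5 days, then fixed and stained in one step (final 0.05% Triton X-100, 1% formaldehyde, 1 ug/ml Hoechst) and imaged at 4×. Doses were one drug alone or a fixed anchor-drug dose plus five library-drug doses (not always all listed) in √10 steps, and values are duplicate-plate medians.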

17-AAG + Tozasertib = compound: C=CCNC1=C2C[C@@H](C)C[C@H](OC)[C@H](O)[C@@H](C)/C=C(\C)[C@H](OC(N)=O)[C@@H](OC)/C=C\C=C(/C)C(=O)NC(=CC1=O)C2=O [17-AAG] + Cc1cc(Nc2cc(N3CCN(C)CC3)nc(Sc3ccc(NC(=O)C4CC4)cc3)n2)n[nH]1 [Tozasertib] (partner 0.1 µM)
Summary of the method: as §1

17-AAG + OSI-027 = compound: C=CCNC1=C2C[C@@H](C)C[C@H](OC)[C@H](O)[C@@H](C)/C=C(\C)[C@H](OC(N)=O)[C@@H](OC)/C=C\C=C(/C)C(=O)NC(=CC1=O)C2=O [17-AAG] + COc1cccc2cc(-c3nc([C@H]4CC[C@H](C(=O)O)CC4)n4ncnc(N)c34)[nH]c12 [OSI-027] (partner 0.5 µM)
Summary of the method: as §1

17-AAG + Linsitinib = compound: C=CCNC1=C2C[C@@H](C)C[C@H](OC)[C@H](O)[C@@H](C)/C=C(\C)[C@H](OC(N)=O)[C@@H](OC)/C=C\C=C(/C)C(=O)NC(=CC1=O)C2=O [17-AAG] + C[C@]1(O)C[C@@H](c2nc(-c3ccc4ccc(-c5ccccc5)nc4c3)c3c(N)nccn32)C1 [Linsitinib] (partner 1 µM)
Summary of the method: as §1

Cell Line | relative viability (17-AAG + Crizotinib; first compound 0.00128 µM) | relative viability (17-AAG + Crizotinib; first compound 0.004048 µM) | relative viability (17-AAG + Crizotinib; first compound 0.0128 µM) | relative viability (17-AAG + Crizotinib; first compound 0.04048 µM) | relative viability (17-AAG + Crizotinib; first compound 0.128 µM) | relative viability (17-AAG + Tozasertib; first compound 0.00128 µM) | relative viability (17-AAG + Tozasertib; first compound 0.004048 µM) | relative viability (17-AAG + Tozasertib; first compound 0.0128 µM) | relative viability (17-AAG + Tozasertib; first compound 0.04048 µM) | relative viability (17-AAG + Tozasertib; first compound 0.128 µM) | relative viability (17-AAG + OSI-027; first compound 0.00128 µM) | relative viability (17-AAG + OSI-027; first compound 0.004048 µM) | relative viability (17-AAG + OSI-027; first compound 0.0128 µM) | relative viability (17-AAG + OSI-027; first compound 0.04048 µM) | relative viability (17-AAG + OSI-027; first compound 0.128 µM) | relative viability (17-AAG + Linsitinib; first compound 0.00128 µM) | relative viability (17-AAG + Linsitinib; first compound 0.004048 µM) | relative viability (17-AAG + Linsitinib; first compound 0.0128 µM) | relative viability (17-AAG + Linsitinib; first compound 0.04048 µM) | relative viability (17-AAG + Linsitinib; first compound 0.128 µM)
NCI-H460 | 0.685 | 0.521 | 0.0433 | 0.0161 | 0.013 | 0.478 | 0.521 | 0.0911 | 0.0297 | 0.0214 | 0.62 | 0.413 | 0.0464 | 0.0193 | 0.0168 | 0.771 | 0.0998 | 0.0141 | 0.0124 | 0.009
NCI-H1793 | – | – | – | – | – | 0.385 | 0.313 | 0.398 | 0.154 | 0.123 | 0.252 | 0.234 | 0.156 | 0.124 | 0.125 | 0.824 | 0.712 | 0.51 | 0.236 | 0.153
NCI-H23 | 0.426 | 0.5 | 0.403 | 0.155 | 0.123 | 0.425 | 0.563 | 0.365 | 0.213 | 0.187 | 0.623 | 0.646 | 0.365 | 0.179 | 0.121 | 0.554 | 0.511 | 0.486 | 0.174 | 0.157
HARA | 1.05 | 1.05 | 1.06 | 1.12 | 0.725 | 0.0961 | 0.125 | 0.135 | 0.148 | 0.132 | 0.503 | 0.56 | 0.489 | 0.151 | 0.0613 | 0.947 | 1.01 | 0.909 | 0.442 | 0.754
NCI-H1792 | 0.997 | 1.02 | 0.897 | 0.848 | 0.19 | – | – | – | – | – | 0.691 | 0.765 | 0.619 | 0.574 | 0.273 | 0.481 | 0.619 | 0.449 | 0.391 | 0.372
NCI-H1703 | 0.611 | 0.634 | 0.129 | 0.151 | 0.119 | – | – | – | – | – | – | – | – | – | – | 0.3 | 0.687 | 0.115 | 0.148 | 0.0982
NCI-H2342 | – | – | – | – | – | 0.442 | 0.437 | 0.518 | 0.493 | 0.306 | 0.552 | 0.716 | 0.584 | 0.504 | 0.425 | – | – | – | – | –
CAL-12T | 0.676 | 0.775 | 0.646 | 0.778 | 0.255 | 0.328 | 0.24 | 0.375 | 0.314 | 0.153 | 0.564 | 0.807 | 0.713 | 0.411 | 0.128 | 0.764 | 0.815 | 0.73 | 0.425 | 0.276
NCI-H838 | 0.748 | 0.729 | 0.259 | 0.118 | 0.112 | 0.315 | 0.309 | 0.161 | 0.135 | 0.134 | 0.408 | 0.369 | 0.246 | 0.147 | 0.124 | 0.942 | 0.97 | 0.756 | 0.17 | 0.142
NCI-H2085 | 0.913 | 0.71 | 0.971 | 0.924 | 0.637 | 0.798 | 0.673 | 0.71 | 0.799 | 0.679 | 0.845 | 0.859 | 0.763 | 0.521 | 0.29 | 0.9 | 0.844 | 1.02 | 0.849 | 0.533
NCI-H1395 | – | – | – | – | – | 0.625 | 0.698 | 0.694 | 0.408 | 0.342 | 0.634 | 0.619 | 0.467 | 0.377 | 0.277 | 1.12 | 1.1 | 0.705 | 0.469 | 0.383
NCI-H1648 | – | – | – | – | – | 0.433 | – | 0.426 | 0.608 | 0.327 | 0.274 | – | 0.345 | 0.261 | 0.259 | – | – | – | – | –
NCI-H520 | 0.924 | 0.663 | 0.492 | 0.112 | 0.0889 | 0.453 | 0.47 | 0.457 | 0.253 | 0.24 | 0.305 | 0.268 | 0.27 | 0.202 | 0.152 | 0.987 | 0.856 | 0.728 | 0.144 | 0.122
A549 | 0.666 | 0.372 | 0.0579 | 0.0609 | 0.0363 | – | – | – | – | – | – | – | – | – | – | 0.646 | 0.487 | 0.371 | 0.105 | 0.0473
IA-LM | 0.807 | 0.663 | 0.758 | 0.291 | 0.0644 | – | – | – | – | – | – | – | – | – | – | 0.551 | 0.667 | 0.599 | 0.177 | 0.102
EKVX | 1.07 | 0.902 | 0.951 | 0.529 | 0.114 | 0.448 | 0.377 | 0.398 | 0.238 | 0.0984 | 0.77 | 0.649 | 0.746 | 0.177 | 0.152 | 1.12 | 1.08 | 0.873 | 0.252 | 0.122
ChaGo-K-1 | 1.11 | 1.07 | 1.03 | 0.628 | 0.293 | 0.215 | 0.249 | 0.279 | 0.217 | 0.205 | 0.514 | 0.71 | 0.51 | 0.24 | 0.16 | – | – | – | – | –
